Results from patent US6716851B2, “Substituted 2-aryl-4-arylaminopyrimidines and analogs as activators or caspases and inducers of apoptosis and the use thereof” (Cytovia, Inc., priority 2000, dated 2004).

How the values were obtained:
[1] = system: MES-SA (sarcoma cell line); experiment: Cell proliferation assay (GI50) in MES-SA cells; type: cell-based; conditions: Homo sapiens, 48 h
Method: [Worded in the source for another cell line; this cell line is reported under the same test.] T-47D cells were grown and harvested as in Example 221. An aliquot of 90 μl of cells (2.2×10^4 cells/ml) was added to a well of a 96-well microtiter plate containing 10 μl of a 10% DMSO in RPMI-1640 media solution containing 1 nM to 100 μM of 4-(3-methoxyanilino)-2-(2-pyridinyl)-6-(trifluoromethyl)pyrimidine (0.1 nM to 10 μM final). An aliquot of 90 μl of cells was added to a well of a 96-well microtiter plate containing 10 μl of a 10% DMSO in RPMI-1640 media solution without compound as the control sample for maximal cell proliferation (AMax). The samples were mixed by agitation and then incubated at 37° C. for 48 h in a 5% CO2-95% humidity incubator. After incubation, the samples were removed from the incubator and 20 μl of CellTiter 96 AQueous One Solution Cell Proliferation^TM reagent (Promega) was added. The samples were mixed by agitation and incubated at 37° C. for 2-4 h in a 5% CO2-95% humidity incubator. Using an absorbance plate reader (Model 1420 Wallac Instruments), an initial reading (T=0) was made approximately 1-2 min after addition of the solution, employing absorbance at 490 nm. This determines the possible background absorbance of the test compounds. No absorbance for 4-(3-methoxyanilino)-2-(2-pyridinyl)-6-(trifluoromethyl)pyrimidine was found at 490 nm. After the 2-4 h incubation, the samples were read for absorbance as above (ATest). […]

MX-1 cells = experiment: Clonogenic survival of MX-1 cells; type: cell-based; conditions: Homo sapiens, MX1; MX-1, 48 h treatment, colonies after 7-10 days; read-out: IC50 inhibition of clonogenic survival (colony forming ability), MX-1
Method: T47D and MX-1 cells were grown according to the conditions according conditions recommended by American Type Culture Collection. In a well of a 96 well plate, 30,000 cells were seeded and treated with tested compound at the indicated concentrations for 48 hr in a 5% CO2-95% humidity incubator at 37° C. Control wells were treated with the same amount of solvent (DMSO) as the compound samples. After the 48 h treatment, the supernatant was removed to a sterile culture tube and the wells washed with phosphate buffered saline, and the adherent cells trypsinized for 5 min. The trypsinzed cells were added to the culture supernatant, cells were collected (1,200 rpm, 10 min), washed with phosphate buffered saline, and resuspended in fresh media. The cells were counted for trypan blue negative cells, and the cells diluted with fresh media to 1,000 cells/ml. To a well of a 24-well plate, 0.1 ml of the cell suspension was added along with 1 ml of fresh media (cell suspensions were passed through a 22G needle several times just before plating to form single cell suspensions). Plates are incubated in a 5% CO2-95% humidity incubator at 37° C. for 7-10 days. Colonies are counted when the sizes reached greater than 50 cells per colony. […] Colonies are rinsed with water and the colonies counted and the fraction surviving expressed as the percentage of the number of control colonies.

GI50 [1]: > 10000 nM
SMILES: COc1cccc(Nc2cc(C(F)(F)F)nc(-c3ccccn3)n2)c1 [Compound A, 4-(3-methoxyanilino)-2-(2-pyridinyl)-6-(trifluoromethyl)pyrimidine]
IC50 (MX-1 cells): ~0.3 µM
